Common to all, as to format: in vivo, human
The test system of data set [1] is patient with pseudotumor cerebri and morning headache from sleep apnea. Put plainly: Treatment of patient with pseudotumor cerebri. Particulars: for outcome of prior treatment: patient history. As for the experimental part:
(III) Treatment of Patient with Pseudotumor Cerebri
A patient presented with daily pseudotumor cerebri and morning headache from sleep apnea, with an intensity of 10/10. […] Patient was treated with 0.2 mg/hr nitroglycerin patch applied 2×/day to shoulder+3 pills of 250 mg sodium selenite/day (Twin Labs)

Data set [2] has as its system patients with cervicogenic tension headaches. Kind of data set: Treatment of patients with cervicogenic tension headaches (case reports). As for the experimental part: (II) Treatment of Patients with Cervicogenic Tension Headaches
(a) A patient presented with cervicogenic tension headache with “severe” neck pain with an intensity of 7 or 8/10. The frequency of headaches was everyday and prior treatment included narcotics, NTHEs, Tylenol.
Treatment: 0.4 mg/hr nitroglycerin patch initially applied 1×/day to shoulder+2 pills of 250 mg sodium selenite/day (Twin Labs)
(b) A patient presented with cervicogenic headache with an intensity of 3-4×/wk. Prior treatment included narcotics, Tylenol, NTHEs. Patient was treated with 0.2 mg/hr nitroglycerin patch applied 1×/day applied to shoulder+2 pills of 250 mg sodium selenite/day (Twin Labs)
(c) A patient presented with migraine/cervicogenic headache with a frequency of everyday and an intensity of 7/10. Prior treatment included narcotics, NTHEs, acetaminophen, morphine cream.
Treatment: 0.4 mg/hr nitroglycerin patch applied 1×/day applied to shoulder+2 pills of 250 mg sodium selenite/day (initially) then 0.1 mg/hr nitroglycerin patch applied 1×/day applied to ankle+2 pills of 250 mg sodium selenite/day
(d) A patient presented with a daily cervicogenic tension headache, with an intensity of 10/10. Prior treatment included narcotics, Tylenol, NTHEs.
Treatment: 0.2 mg/hr nitroglycerin patch applied 1×/day to shoulder+3 pills of 250 mg sodium selenite/day (Twin Labs)
(e) A patient presented with a daily cervicogenic tension headache, with an intensity of 10/10. Prior treatment included narcotics, Tylenol, NTHEs, trigger point injections
Treatment: 0.2 mg/hr nitroglycerin patch applied 1×/day to shoulder+2 pills of 250 mg sodium selenite/day (Twin Labs)
(f) A patient presented with a daily cervicogenic tension headache, with an intensity of 7-8/10. Prior treatment included narcotics, Tylenol, NTHEs, trigger point injections
(g) A patient presented with a daily cervicogenic tension headache, with an intensity of 9-10/10. Prior treatment included narcotics, Tylenol, NTHEs, trigger point injections, BoTox which worked well for 3 months but is too expensive
Treatment: 0.2 mg/hr nitroglycerin patch applied 2×/day to shoulder+3 pills of 250 mg sodium selenite/day (Twin Labs).
(h) A patient presented with a daily cervicogenic tension headache with an intensity of 5/10. Prior treatment included narcotics, Tylenol, NTHEs, trigger point injections.
(i) A patient presented with a daily cervicogenic tension headache, with an intensity of 7-8/10. Prior treatment included narcotics, Tylenol, NTHEs, trigger point injections

Data set [3] relates to patient with dermatomyositis. Kind of data set: Treatment of patient with inflammatory arthropathies: dermatomyositis (case report). As for the experimental part:
(c) A patient presented with a 10/10 pain level from Dermatomyositis, with the following symptoms: morning stiffness, diffuse polyarticular involvement, malaise, proximal muscle weakness, muscle tenderness
Prior treatment included narcotics, antiinflammatories, corticosteroids, disease-modifying anti-rheumatologic drugs (DMARDs) daily.
Treatment: 0.3 mg/hr nitroglycerin patch applied 2×/day (every 12 hours) to shoulder+3 pills of 250 mg sodium selenite/day (Twin Labs)

In data set [4] the test system is patients with rheumatoid arthritis. Put plainly: Treatment of patients with inflammatory arthropathies: rheumatoid arthritis (case reports). As for the experimental part:
Treatment of Patient with Inflammatory Arthropathies […]
(b) A patient presented with Rheumatoid Arthritis with pain levels of 10/10 and the following symptoms: morning stiffness, diffuse polyarticular involvement, malaise, weakness, myalgias
Prior treatment included narcotics, antiinflammatories, corticosteroids daily.
Treatment: 0.1 mg/hr nitroglycerin patch applied 2×/day (every 12 hours) to shoulder+2 pills of 250 mg sodium selenite/day (Twin Labs) […]

The subject of data set [5] is patients with migraine headaches. Kind of data set: Treatment of patients with migraine headaches (case reports). As for the experimental part: (I) Treatment of Patients with Migraine Headaches […]
(d) A patient presented with an every other day migraine headache with an intensity of 10/10, and the patient stated “The headaches were so bad that I was unable to work or enjoy my life.” Prior treatment included extensive workup by neurologists.
Treatment: 0.6 mg/hr nitroglycerin patch applied 2×/day (every 12 hours) to ankle for 1 week then shoulder+2 pills of 250 mg sodium selenite/day (Twin Labs) […]

Data set [6] deals with patient with hemicrania continua. Put plainly: Treatment of patient with hemicrania continua. The note with it: patient history. As for the experimental part:
(II) Treatment of Patient with Hemicrania Continua
A patient presented with daily hemicrania continua with an intensity of 8-9/10. […] Patient was treated with 0.2 mg/hr nitroglycerin patch applied 2×/day to shoulder+2 pills of 250 mg sodium selenite/day (Twin Labs).

Where [7] appears, read: dermatomyositis patient (c), patient history.

Molecules are shown by their SMILES.

Regarding `CC(=O)Nc1nnc(S(N)(=O)=O)s1` [Diamox], the “outcome of prior treatment” value in data set [1] is recorded as “without much success”.
As to `CNS(=O)(=O)Cc1ccc2[nH]cc(CCN(C)C)c2c1` [Imitrex, sumatriptan], the “effect of Imitrex on treatment-induced worsened headaches” value in data set [1] (patient on nitroglycerin patch + selenite) is “improved”.
Turning to `CNC[C@H](O)c1cccc(O)c1.Cl` [SUDAFED, phenylephrine hydrochloride], the “alleviation of treatment-induced headache by SUDAFED” value (from here on “alleviation”) in data set [2] (cervicogenic patient (a) on nitroglycerin patch + selenite) is listed as “unalleviated”; in data set [2] (cervicogenic patient (g) on nitroglycerin patch + selenite), “partially alleviated”; in data set [2] (cervicogenic patient (i) on nitroglycerin patch + selenite), “totally alleviated”; in data set [2] (cervicogenic patient on nitroglycerin patch + selenite), “alleviated”; in data set [3] (dermatomyositis patient (c) on nitroglycerin patch + selenite), “partially alleviated”; in data set [4] (RA patient (a) on nitroglycerin patch + selenite), “partially alleviated”. For the same compound, the “alleviation” value in data set [4] (RA patient (b) on nitroglycerin patch + selenite) was “partially alleviated”; in data set [4] (RA patient (d) on nitroglycerin patch + selenite) it was “partially alleviated”; in data set [4] (RA patient (e) on nitroglycerin patch + selenite) it was “partially alleviated”; in data set [5] (migraine patient (a) on nitroglycerin patch + selenite) it was “partially alleviated”; in data set [5] (migraine patient (b) on nitroglycerin patch + selenite) it was “partially alleviated”; in data set [5] (migraine patient (d) on nitroglycerin patch + selenite) it was “not alleviated”. Besides, the “alleviation” value is on record as “partially alleviated” in data set [5] (migraine patient (h) on nitroglycerin patch + selenite), “partially alleviated” in data set [5] (migraine patient on nitroglycerin patch + selenite) and “not alleviated” in data set [5] (migraine/tension patient (c) on nitroglycerin patch + selenite).
As to `C[C@]12C=CC(=O)C=C1CC[C@@H]1[C@@H]2C(=O)C[C@@]2(C)[C@H]1CC[C@]2(O)C(=O)CO` [Prednisone], in data set [3] (setting [7]), the “initial response to prior treatment” value is given as “excellent response”; the “side effects of prior treatment” value is “steroid-induced osteoporotic rib and wrist fractures”. In data set [4] (RA patient (b), patient history, daily corticosteroids), the “side effects of prior treatment” value was “Vertebral fractures and osteonecrosis”.
As to `CC(=O)Nc1ccc(O)cc1` [Tylenol], the “outcome of prior treatment” value is “without much success” in data set [1] and “without success” in data set [6].
As for `CC1(C)O[C@@H]2[C@@H](CO[C@@]3(COS(N)(=O)=O)OC(C)(C)O[C@@H]23)O1` [Topamax], the “outcome of prior treatment” value in data set [1] is given as “without much success”; in data set [5] (migraine patient (d), patient history), “without success”.

Source of the values: patent publication US20090191283A1, “TREATMENT OF HEADACHES, NECK PAIN, JOINT PAIN AND INFLAMMATORY-TYPE PAIN” (priority 2008, published 2009).
